Laboratory results: patent US20260116910A1, “POLYCYCLIC COMPOUNDS AND METHODS THEREOF” (HEPAITECH (BEIJING) BIOPHARMA TECHNOLOGY CO., LTD., priority 2021, published 2026)

How the values were obtained:
Assay type in all cases: cell-based
human FXR (NR1H4) = target: T1, human FXR (NR1H4) (Homo sapiens, UniProt Q96RI1); experiment: Human FXR (NR1H4) agonist assessment, FXRE-NanoLuc reporter in HEK293T cells; settings: FXR activation, HEK293T FXRE-NanoLuc reporter, 24 hr; for EC50: read-out: EC50
T1 sequence (Q96RI1 1-476 isoform Q96RI1-1): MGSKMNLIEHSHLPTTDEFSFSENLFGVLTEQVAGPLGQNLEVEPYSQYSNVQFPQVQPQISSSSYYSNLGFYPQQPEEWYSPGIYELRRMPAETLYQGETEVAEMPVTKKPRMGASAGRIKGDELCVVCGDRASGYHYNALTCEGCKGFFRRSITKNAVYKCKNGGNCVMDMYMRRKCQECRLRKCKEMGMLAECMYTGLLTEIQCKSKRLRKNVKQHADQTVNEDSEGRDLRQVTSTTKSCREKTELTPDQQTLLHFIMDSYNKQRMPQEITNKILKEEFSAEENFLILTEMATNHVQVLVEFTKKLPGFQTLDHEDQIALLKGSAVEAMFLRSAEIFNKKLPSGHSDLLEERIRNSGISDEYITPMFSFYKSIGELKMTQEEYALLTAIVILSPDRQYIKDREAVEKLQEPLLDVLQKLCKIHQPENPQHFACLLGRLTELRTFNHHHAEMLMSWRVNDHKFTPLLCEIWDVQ
How it was run: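 HEK293T cells stably expressing human FXR with an FXRE-NanoLuc reporter were treated with compounds for 24 hr at 37 °C, with 0.01% DMSO as negative control. Medium was read for luminescence after 5 min with coelenterazine. EC50 was fitted by sigmoid to concentration-response data.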

human TGR5 = target: T2, human TGR5 (Homo sapiens, UniProt Q8TDU6); experiment: TGR5 agonist assessment, CRE-NanoLuc reporter in HEK293T cells
T2 sequence (Q8TDU6 1-330): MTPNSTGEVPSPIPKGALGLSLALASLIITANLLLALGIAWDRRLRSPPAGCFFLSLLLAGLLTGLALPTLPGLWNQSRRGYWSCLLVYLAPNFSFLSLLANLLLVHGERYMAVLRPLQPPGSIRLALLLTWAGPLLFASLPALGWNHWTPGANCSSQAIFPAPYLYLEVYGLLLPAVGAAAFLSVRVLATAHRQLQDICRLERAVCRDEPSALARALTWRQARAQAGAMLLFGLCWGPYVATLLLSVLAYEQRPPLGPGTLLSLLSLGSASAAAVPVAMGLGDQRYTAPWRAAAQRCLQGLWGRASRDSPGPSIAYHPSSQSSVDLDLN
Experimental: Cells were detached by centrifuging (1000 rpm, 3 min). The pellet was re-suspended in medium, and cell density was adjusted to about 1×10^6 cells/mL. […] Cells in the microplates were cultured overnight.
Culture medium was replaced, and compounds were added to the wells. 0.01% DMSO (v/v) served as negative control. Plates were incubated at 37° C. in 5% CO2 for 24 hr.
In the following day, a 10 μL aliquot of cell culture medium was removed from each well and combined with 40 μL culture medium plus […] assay buffer (containing 20 mM of the luciferase substrate coelenterazine). After 5 min incubation, luminescence was measured using an EnVision plate reader (PerkinElmer).
In some embodiments, gradient diluted solutions of several concentrations were used to treat cells and corresponding responses were used to fit sigmoid function and to derive EC50 in Origin.

MRGPRX4 = MRGPRX4 (Homo sapiens, UniProt Q96LA9); experiment: MRGPRX4 activation, Fluo-8 Ca2+ FLIPR assay in HEK293T cells stably expressing MRGPRX4; design: key to MRGPRX4 activation, Average / MRGPRX4 activation, Ave.: fluorescence change dF/F0; settings: for EC50: MRGPRX4 activation, Ca2+ fluorescence, no activation in tested range reported as III, read-out: Activity (EC50 μM)
Chain of MRGPRX4 (Q96LA9 whole entry): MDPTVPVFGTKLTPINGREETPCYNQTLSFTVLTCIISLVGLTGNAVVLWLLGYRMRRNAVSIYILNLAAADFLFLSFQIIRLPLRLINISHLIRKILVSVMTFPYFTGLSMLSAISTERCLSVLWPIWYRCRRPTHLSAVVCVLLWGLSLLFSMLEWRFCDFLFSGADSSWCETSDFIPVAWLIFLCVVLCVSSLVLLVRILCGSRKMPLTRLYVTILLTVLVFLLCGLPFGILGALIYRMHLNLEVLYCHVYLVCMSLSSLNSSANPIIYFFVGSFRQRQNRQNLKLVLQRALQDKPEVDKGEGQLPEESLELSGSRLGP
How it was run: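 Cells seeded overnight to >95% confluence, loaded 40-60 min at room temperature with 2 μM Fluo-8 AM, then kept in HHBS. Baseline read 30 s, compound added, signal followed 150 s more.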

SMILES	Efficacy (maximum measured induction of NanoLuc, normalized to CDCA set as 100%) (human FXR (NR1H4))	EC50 (human FXR (NR1H4))	EC50 (MRGPRX4)	MRGPRX4 activation, fluorescence change (dF/F0), Average (MRGPRX4; Conc. (Log[M]) −4)	MRGPRX4 activation, fluorescence change (dF/F0), Average (MRGPRX4; Conc. (Log[M]) −4.5)	MRGPRX4 activation, fluorescence change (dF/F0), Average (MRGPRX4; Conc. (Log[M]) −5)	MRGPRX4 activation, fluorescence change (dF/F0), Average (MRGPRX4; Conc. (Log[M]) −5.5)	MRGPRX4 activation, fluorescence change (dF/F0), Average (MRGPRX4; Conc. (Log[M]) −6)	MRGPRX4 activation, fluorescence change (dF/F0), Average (MRGPRX4; Conc. (Log[M]) −7)	MRGPRX4 activation, fluorescence change (dF/F0), Average (MRGPRX4; Conc. (Log[M]) −8)	MRGPRX4 activation, fluorescence change (dF/F0), Average (MRGPRX4; Conc. (Log[M]) −9)	MRGPRX4 activation, Average (MRGPRX4; E3-9, Conc. (Log[M]) −4.0)	MRGPRX4 activation, Average (MRGPRX4; E3-9, Conc. (Log[M]) −4.5)	MRGPRX4 activation, Average (MRGPRX4; E3-9, Conc. (Log[M]) −5.0)	MRGPRX4 activation, Average (MRGPRX4; E3-9, Conc. (Log[M]) −5.4)	MRGPRX4 activation, Average (MRGPRX4; E3-9, Conc. (Log[M]) −5.9)	MRGPRX4 activation, Average (MRGPRX4; E3-9, Conc. (Log[M]) −6.4)	MRGPRX4 activation, Average (MRGPRX4; E3-9, Conc. (Log[M]) −6.9)	MRGPRX4 activation, Average (MRGPRX4; E3-9, Conc. (Log[M]) −7.3)	MRGPRX4 activation, Average (MRGPRX4; E3-9, Conc. (Log[M]) −7.8)	also measured
CC[C@H]1[C@@H](O)[C@@H]2[C@H](CC[C@]3(C)[C@@H]([C@H](C)CCNC(=O)NS(=O)(=O)N(C)C)CC[C@@H]23)[C@@]2(C)CCCC[C@@H]12 [5-15]	C (100%<efficacy <=300%)	< 1 µM	> 100 µM	–	–	–	–	–	–	–	–	–	–	–	–	–	–	–	–	–	EC50 (human TGR5): 0.013 µM; MRGPRX4 activation, Average (MRGPRX4; E3-6-2, 1st of 6 concentration columns (head not in rows shown)): 0.087; MRGPRX4 activation, Average (MRGPRX4; E3-6-2, 3rd of 6 concentration columns (head not in rows shown)): 0.013; MRGPRX4 activation, Average (MRGPRX4; E3-6-2, 6th of 6 concentration columns (head not in rows shown)): 0.010; MRGPRX4 activation, Average (MRGPRX4; E3-6-2, concentration not given): 0.010
CC[C@H]1[C@@H](O)[C@@H]2[C@H](CC[C@]3(C)[C@@H]([C@H](C)CCNC(=O)NS(=O)(=O)c4cc(F)ccc4F)CC[C@@H]23)[C@@]2(C)CC[C@H](F)C[C@@H]12 [9-2]	B (300%<efficacy <=400%)	< 1 µM	50 to 100 µM	0.655	0.162	0.011	−0.068	−0.030	−0.029	−0.035	−0.072	0.035	0.001	0.002	0.019	0.018	0.018	0.014	0.019	0.016	MRGPRX4 activation, Average (MRGPRX4; E3-9, Conc. (Log[M]) −8.3): 0.019
CC[C@H]1[C@@H](O)[C@@H]2[C@H](CC[C@]3(C)[C@@H]([C@H](C)CCNC(=O)NS(=O)(=O)c4cccs4)CC[C@@H]23)[C@@]2(C)CC[C@H](F)C[C@@H]12 [9-4]	C (100%<efficacy <=300%)	< 1 µM	> 100 µM	–	–	–	–	–	–	–	–	−0.003	0.004	0.014	0.019	0.019	0.018	0.019	0.021	0.018	MRGPRX4 activation, Average (MRGPRX4; E3-9, Conc. (Log[M]) −8.3): 0.019
C[C@H](CC/C=C/C(=O)O)[C@H]1CC[C@H]2[C@@H]3CC[C@@H]4C[C@H](O)CC[C@]4(C)[C@H]3CC[C@]12C [1-7]	C (100%<efficacy <=300%)	1 to 10 µM	< 50 µM	0.083	0.011	−0.048	−0.037	−0.044	−0.045	−0.040	−0.034	–	–	–	–	–	–	–	–	–	–
CC[C@H]1[C@@H](OC(=O)c2cccc(I)c2)[C@@H]2[C@H](CC[C@@]3(C)[C@H]2CC[C@]3(Cl)[C@H](C)CCC(=O)OC)[C@@]2(C)CCCC[C@@H]12 [1-6]	D (efficacy <=100%)	> 10 µM	> 100 µM	0.018	−0.031	−0.001	−0.012	−0.006	−0.001	0.001	−0.014	–	–	–	–	–	–	–	–	–	–
